Assay results reported in ChEMBL document CHEMBL5247634, “Design, synthesis and anticancer evaluation of selective 2,4-disubstituted pyrimidine CDK9 inhibitors” (Eur J Med Chem, 2022).
Calls of active or inactive are those of the source. No cut-off for these calls is given here.

Legend:
[1] = molecular target: Cyclin-dependent kinase 2 (Homo sapiens, UniProt P24941)
Description: Inhibition of CDK2 (unknown origin)

[2] = test system: HCT-116; test: Antiproliferative activity against human HCT-116 cells assessed as cell growth inhibition measured after 72 hrs by MTT assay; type: functional, cell-based; conditions: HCT-116, 72 h
[3] = test system: L02; test: Antiproliferative activity against human L02 cells assessed as cell growth inhibition measured after 72 hrs by MTT assay; type: functional, cell-based; conditions: L02, 72 h
[4] = test system: A-431; test: Antiproliferative activity against human A-431 cells assessed as cell growth inhibition measured after 72 hrs by MTT assay; type: functional, cell-based; conditions: A-431, 72 h
[5] = test system: PANC-1; test: Antiproliferative activity against human PANC-1 cells assessed as cell growth inhibition measured after 72 hrs by MTT assay; type: functional, cell-based; conditions: PANC-1, 72 h
[6] = test system: NCI-H1975; test: Antiproliferative activity against human NCI-H1975 cells assessed as cell growth inhibition measured after 72 hrs by MTT assay; type: functional, cell-based; conditions: NCI-H1975, 72 h
[7] = organism: Homo sapiens; test: Selectivity index, ratio of IC50 for CDK2/cyclin A (unknown origin) to IC50 for CDK9/cyclin T1 (unknown origin)
[8] = molecular target: CDK9/cyclin T1 (Homo sapiens, UniProt P50750); test: Inhibition of CDK9/cyclin T1 (unknown origin) using as PDKtide substrate incubated for 1 hr in presence of ATP by ADP-glo luminescent assay; type: protein-complex assay
[9] = molecular target: Cyclin-dependent kinase 2/cyclin A (Homo sapiens, UniProt P24941); test: Inhibition of CDK2/cyclin A (unknown origin) incubated for 1 hr in presence of ATP by ADP-glo luminescent assay; type: protein-complex assay
[10] = test system: A549; test: Antiproliferative activity against human A549 cells assessed as cell growth inhibition measured after 72 hrs by MTT assay; type: functional, cell-based; conditions: A549, 72 h
[11] = Toxicity in BALB/c nude mouse xenografted with human PANC-1 cells assessed as no tissue lesions and necrosis at 5 to 20 mg/kg, ip administered for every other day for 4 weeks; type: organism-based; conditions: in vivo, 672 h, dose 5-20 mg/kg
[12] = test system: PANC-1; test: Induction of cell cycle arrest in human PANC-1 cells assessed as accumulation at G2M phase at 0.1 uM incubated for 24 hrs by propidium iodide staining based flow cytometric analysis (reference value: 2.16%); type: functional
[13] = Downregulation of RNAPII phosphorylation level in human PANC-1 cells at 2.5 uM incubated for 24 hrs by Western blot analysis; type: functional
[14] = test system: PANC-1; test: Induction of apoptosis in human PANC-1 cells assessed as early apoptotic cells at 0.5 uM incubated for 48 hrs by Annexin-V-FITC/PI staining based flow cytometric analysis (reference value: 2.21%); type: functional
[15] = test system: PANC-1; test: Induction of cell cycle arrest in human PANC-1 cells assessed as accumulation at S phase at 2.5 uM incubated for 24 hrs by propidium iodide staining based flow cytometric analysis (reference value: 17.48%); type: functional
[16] = Toxicity in BALB/c nude mouse assessed as no obvious change in body weight at 5 to 20 mg/kg, ip administered for every other day for 4 weeks; type: organism-based; conditions: in vivo, 672 h, dose 5-20 mg/kg
[17] = test system: PANC-1; test: Induction of apoptosis in human PANC-1 cells assessed as late apoptotic cells at 0.1 uM incubated for 48 hrs by Annexin-V-FITC/PI staining based flow cytometric analysis (reference value: 0.22%); type: functional
[18] = test system: PANC-1; test: Antitumor activity against human PANC-1 cells xenografted in BALB/c nude mouse assessed as reduction in tumor growth rate at 10 mg/kg, ip administered for every other day for 4 weeks relative to control; type: functional; set-up: scale not given: the % may be the effect or the level left
[19] = test system: PANC-1; test: Induction of apoptosis in human PANC-1 cells assessed as late apoptotic cells at 0.5 uM incubated for 48 hrs by Annexin-V-FITC/PI staining based flow cytometric analysis (reference value: 0.22%); type: functional
[20] = test system: PANC-1; test: Induction of cell cycle arrest in human PANC-1 cells assessed as accumulation at G2M phase at 0.5 uM incubated for 24 hrs by propidium iodide staining based flow cytometric analysis (reference value: 2.16%); type: functional
[21] = test system: PANC-1; test: Induction of apoptosis in human PANC-1 cells assessed as viable cells at 2.5 uM incubated for 48 hrs by Annexin-V-FITC/PI staining based flow cytometric analysis (reference value: 97.0%); type: functional; conditions: read-out: Activity
[22] = Toxicity in BALB/c nude mouse xenografted with human PANC-1 cells assessed as mortality at 5 to 20 mg/kg, ip administered for every other day for 4 weeks; type: organism-based; conditions: in vivo, 672 h, dose 5-20 mg/kg
[23] = test system: PANC-1; test: Antitumor activity against human PANC-1 cells xenografted in BALB/c nude mouse assessed as reduction in tumor growth rate at 20 mg/kg, ip administered for every other day for 4 weeks relative to control; type: functional; set-up: scale not given: the % may be the effect or the level left
[24] = test system: PANC-1; test: Induction of apoptosis in human PANC-1 cells assessed as viable cells at 0.5 uM incubated for 48 hrs by Annexin-V-FITC/PI staining based flow cytometric analysis (reference value: 97.0%); type: functional; conditions: read-out: Activity
[25] = test system: PANC-1; test: Antitumor activity against human PANC-1 cells xenografted in BALB/c nude mouse assessed as reduction in tumor growth rate at […], ip administered for every other day for 4 weeks relative to control; type: functional; set-up: scale not given: the % may be the effect or the level left
[26] = test system: PANC-1; test: Induction of cell cycle arrest in human PANC-1 cells assessed as accumulation at G1 phase at 2.5 uM incubated for 24 hrs by propidium iodide staining based flow cytometric analysis (reference value: 80.36%); type: functional
[27] = test system: PANC-1; test: Induction of apoptosis in human PANC-1 cells assessed as necrotic cells at 2.5 uM incubated for 48 hrs by Annexin-V-FITC/PI staining based flow cytometric analysis (reference value: 0.59%); type: functional
[28] = test system: PANC-1; test: Induction of cell cycle arrest in human PANC-1 cells assessed as accumulation at S phase at 0.1 uM incubated for 24 hrs by propidium iodide staining based flow cytometric analysis (reference value: 17.48%); type: functional
[29] = test system: PANC-1; test: Downregulation of RNAPII phosphorylation level in human PANC-1 cells at 0.5 uM incubated for 24 hrs by Western blot analysis; type: functional, cell-based
[30] = test system: PANC-1; test: Induction of cell cycle arrest in human PANC-1 cells assessed as accumulation at G1 phase at 0.1 uM incubated for 24 hrs by propidium iodide staining based flow cytometric analysis (reference value: 80.36%); type: functional
[31] = test system: PANC-1; test: Induction of apoptosis in human PANC-1 cells assessed as necrotic cells at 0.5 uM incubated for 48 hrs by Annexin-V-FITC/PI staining based flow cytometric analysis (reference value: 0.59%); type: functional
[32] = test system: PANC-1; test: Induction of apoptosis in human PANC-1 cells assessed as viable cells at 0.1 uM incubated for 48 hrs by Annexin-V-FITC/PI staining based flow cytometric analysis (reference value: 97.0%); type: functional; conditions: read-out: Activity
[33] = test system: PANC-1; test: Induction of apoptosis in human PANC-1 cells assessed as necrotic cells at 0.1 uM incubated for 48 hrs by Annexin-V-FITC/PI staining based flow cytometric analysis (reference value: 0.59%); type: functional
[34] = test system: PANC-1; test: Induction of cell cycle arrest in human PANC-1 cells assessed as accumulation at G1 phase at 0.5 uM incubated for 24 hrs by propidium iodide staining based flow cytometric analysis (reference value: 80.36%); type: functional
[35] = test system: PANC-1; test: Induction of apoptosis in human PANC-1 cells assessed as late apoptotic cells at 2.5 uM incubated for 48 hrs by Annexin-V-FITC/PI staining based flow cytometric analysis (reference value: 0.22%); type: functional
[36] = test system: PANC-1; test: Induction of cell cycle arrest in human PANC-1 cells assessed as accumulation at S phase at 0.5 uM incubated for 24 hrs by propidium iodide staining based flow cytometric analysis (reference value: 17.48%); type: functional
[37] = test system: PANC-1; test: Induction of cell cycle arrest in human PANC-1 cells assessed as accumulation at G2M phase at 2.5 uM incubated for 24 hrs by propidium iodide staining based flow cytometric analysis (reference value: 2.16%); type: functional
[38] = test system: PANC-1; test: Induction of apoptosis in human PANC-1 cells assessed as early apoptotic cells at 2.5 uM incubated for 48 hrs by Annexin-V-FITC/PI staining based flow cytometric analysis (reference value: 2.21%); type: functional
[39] = test system: PANC-1; test: Induction of apoptosis in human PANC-1 cells assessed as early apoptotic cells at 0.1 uM incubated for 48 hrs by Annexin-V-FITC/PI staining based flow cytometric analysis (reference value: 2.21%); type: functional
[40] = test system: PANC-1; test: Inhibition of CDK9 expression in human PANC-1 cells incubated for 24 hrs by Western blot analysis; type: functional, cell-based; conditions: dose 0.1-2.5 µM

Sequence of CDK9/cyclin T1 (O60563 whole entry): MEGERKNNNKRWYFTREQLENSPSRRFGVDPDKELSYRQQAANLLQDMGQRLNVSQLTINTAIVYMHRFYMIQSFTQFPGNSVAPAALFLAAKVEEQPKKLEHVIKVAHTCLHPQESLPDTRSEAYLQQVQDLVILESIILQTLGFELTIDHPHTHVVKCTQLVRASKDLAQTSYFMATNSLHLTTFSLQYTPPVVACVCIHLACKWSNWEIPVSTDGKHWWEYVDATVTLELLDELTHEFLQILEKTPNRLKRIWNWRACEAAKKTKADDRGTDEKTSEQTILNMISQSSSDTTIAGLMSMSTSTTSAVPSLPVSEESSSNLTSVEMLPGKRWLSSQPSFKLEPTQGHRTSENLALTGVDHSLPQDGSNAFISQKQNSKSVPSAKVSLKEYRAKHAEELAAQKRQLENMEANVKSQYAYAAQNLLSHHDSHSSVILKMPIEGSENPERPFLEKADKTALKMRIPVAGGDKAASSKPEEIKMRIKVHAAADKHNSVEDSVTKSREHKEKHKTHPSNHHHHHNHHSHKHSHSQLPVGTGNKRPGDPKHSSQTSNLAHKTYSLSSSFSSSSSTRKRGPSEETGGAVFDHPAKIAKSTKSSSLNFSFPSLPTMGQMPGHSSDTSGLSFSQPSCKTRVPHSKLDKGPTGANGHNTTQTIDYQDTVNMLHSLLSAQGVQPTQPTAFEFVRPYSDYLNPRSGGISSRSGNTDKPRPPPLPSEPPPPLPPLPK
Sequence of CDK9/cyclin T1 (P50750 whole entry): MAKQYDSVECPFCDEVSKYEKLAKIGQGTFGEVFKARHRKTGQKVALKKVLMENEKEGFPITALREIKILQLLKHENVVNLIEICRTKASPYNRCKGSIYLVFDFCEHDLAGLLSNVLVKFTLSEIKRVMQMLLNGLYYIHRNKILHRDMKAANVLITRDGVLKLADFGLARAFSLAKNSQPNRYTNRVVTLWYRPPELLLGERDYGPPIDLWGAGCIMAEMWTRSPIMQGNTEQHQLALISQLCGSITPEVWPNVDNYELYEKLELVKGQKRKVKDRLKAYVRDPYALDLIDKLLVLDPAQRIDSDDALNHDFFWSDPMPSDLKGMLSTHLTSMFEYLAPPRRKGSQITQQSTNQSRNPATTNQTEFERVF

Molecule `CC(C)c1c2cc(-c3ccnc(N[C@H]4CC[C@H](NC5CCOCC5)CC4)n3)ccc2nn1C` has an IC50 [1] of 0.4 µM.

In the case of `O=C(c1ccc(Nc2nccc(-c3ccc(F)cc3OCc3ccccc3)n2)cc1)N1CCNCC1`, the IC50 [2] is reported as 2.39 µM, the IC50 [3] is reported as 5.71 µM and the IC50 [4] is reported as 3.36 µM. The IC50 [5] was 2.87 µM and the IC50 [6] was 2.23 µM.

With `O=C(O)c1ccc(Nc2nccc(-c3ccc(F)cc3OCc3ccccc3)n2)cc1` the IC50 [2] was 9.69 µM, the IC50 [3] was 22.2 µM and the Selectivity Index [7] was 7.4. For the same molecule, the IC50 [4] was 7.28 µM, the IC50 [5] was 12.7 µM and the IC50 [6] was 8.35 µM. For the same molecule, the IC50 [8] was 0.0862 µM and the IC50 [9] was 0.636 µM.

With `O=C(NCCN1CCOCC1)c1ccc(Nc2nccc(-c3ccc(F)cc3OCc3ccccc3)n2)cc1` the IC50 [2] was 18 µM, the IC50 [3] was 18.9 µM and the IC50 [4] was 16.6 µM. For the same molecule, the IC50 [5] was 16.5 µM and the IC50 [6] was 10.6 µM.

For `CNCCNC(=O)c1ccc(Nc2nccc(-c3ccc(F)cc3OC)n2)cc1`, the IC50 [2] was 16.3 µM, the IC50 [10] was 10.1 µM and the IC50 [3] was 22.7 µM. It also gave an IC50 [4] of 6.7 µM, an IC50 [5] of 9.41 µM and an IC50 [6] of 9.61 µM.

Molecule `CC(C)(C)OC(=O)N1CCN(C(=O)c2ccc(Nc3nccc(-c4ccc(F)cc4OCc4ccccc4)n3)cc2)CC1` has an IC50 [2] of 10.2 µM, an IC50 [10] of 1.61 µM and an IC50 [3] of 5.69 µM. The Selectivity Index [7] was 10.4, the IC50 [4] was 0.73 µM and the IC50 [5] was 0.23 µM. It also gave an IC50 [6] of 1.74 µM, an IC50 [8] of 0.0855 µM and an IC50 [9] of 0.924 µM.

For `CN(C)CCNC(=O)c1ccc(Nc2nccc(-c3ccc(F)cc3OCc3ccccc3)n2)cc1`, the IC50 [2] was 0.09 µM, the Activity [11] was “Non-Toxic” and the Activity [12] was 21.83%. The inhibition at 2.5 µM [13] was 100%, the Activity [14] was 8.41% and the Activity [15] was 19.73%. For the same molecule, the Activity [16] was “Non-Toxic”, the IC50 [10] was 0.66 µM and the Activity [17] was 19.9%. The Activity [18] was 32.6%, the Activity [19] was 45.7% and the Activity [20] was 25.85%. For the same molecule, the viability at 2.5 µM [21] was 29.8%, the IC50 [3] was 1.43 µM and the Activity [22] was “Non-Toxic”. It also gave an Activity [23] of 54.2%, a viability at 0.5 µM [24] of 40.1% and an Activity [25] of 6.2%. It also gave an Activity [26] of 46.01%, an Activity [27] of 4.35% and a Selectivity Index [7] of 84.3. For the same molecule, the Activity [28] was 22.92%, the Activity [29] was “Active” and the Activity [30] was 55.25%. It also gave an Activity [31] of 5.78%, an IC50 [4] of 0.1 µM and a viability at 0.1 µM [32] of 52.4%. The IC50 [5] was 0.08 µM, the Activity [33] was 4.07% and the IC50 [6] was 0.43 µM. For the same molecule, the Activity [34] was 53.9%, the Activity [35] was 57.4% and the Activity [36] was 20.25%. The Activity [37] was 34.26%, the IC50 [8] was 0.0104 µM and the Activity [38] was 8.44%. For the same molecule, the IC50 [9] was 0.876 µM, the Activity [39] was 23.7% and the inhibition [40] was “Dose-Dependent Effect”.

`CNCCNC(=O)c1ccc(Nc2nccc(-c3ccc(F)cc3OCc3ccccc3)n2)cc1` gave an IC50 [2] of 3.3 µM, an IC50 [10] of 3.8 µM and an IC50 [3] of 18.7 µM. It also gave an IC50 [4] of 2.84 µM, an IC50 [5] of 3.9 µM and an IC50 [6] of 1.15 µM.

`CN1CCN(C(=O)c2ccc(Nc3nccc(-c4ccc(F)cc4OCc4ccccc4)n3)cc2)CC1` showed an IC50 [2] of 5.56 µM, an IC50 [10] of 2.38 µM and an IC50 [3] of 5.28 µM. The IC50 [4] was 1.05 µM, the IC50 [5] was 2.48 µM and the IC50 [6] was 1.21 µM.

With `O=C(NCCF)c1ccc(Nc2nccc(-c3ccc(F)cc3OCc3ccccc3)n2)cc1` the IC50 [2] was 17.6 µM, the IC50 [3] was 35.4 µM and the IC50 [4] was 37.1 µM. It also gave an IC50 [5] of 52.5 µM and an IC50 [6] of 28.5 µM.
